Laboratory results taken from US20260337190A1, “CRYSTAL FORM OF PYRIDINOPYRIMIDINONE COMPOUND, ACID SALT THEREOF, CRYSTAL FORM OF ACID SALT THEREOF, AND USE” (Wuhan Humanwell Innovative Drug Research and Development …, priority 2022, published 2026).
Structures can show the parent of a compound that is named as a salt.

What was measured:
[1] = Dynamic solubility in water, SGF, FaSSIF and FeSSIF; type: physicochemical; details: for solubility in water, SGF, FaSSIF and FeSSIF: 10 mg/mL feed, 1, 4, 24 hours; for change in crystal form after solubility test: XRPD after solubility test
Experimental: Purified water was added to complete dissolution.

[2] = Solid state stability (25 °C/60% RH and 40 °C/75% RH, one week; XRPD and HPLC); type: physicochemical; details: for solid state stability: open condition, one week, 25 °C/60% RH and 40 °C/75% RH
Experimental: The purity test, dynamic solubility test, and stability test in the assay were measured with an Agilent 1260 high-performance liquid chromatograph, and the salt formation molar ratio of ions was tested by ion chromatography, and the analytical conditions are shown in Table 5 and Table 6.

[3] = Hygroscopicity by dynamic vapor sorption (DVS); type: physicochemical; details: 25 °C
Experimental: The dynamic vapor sorption (DVS) curve was collected on DVS IntrInsic from SMS (surface measurement systems). The relative humidity at 25 °C was corrected using the deliquescence points of LiCl, Mg(NO3)2, and KCl.
Starting from 0% RH or room humidity, the test collected the mass change percentage of the sample as the humidity changed (0% RH to 95% RH) under constant temperature conditions of 25 °C The results of the DVS test and the XRPD results of the samples before and after the DVS test are shown in FIG. 113 to FIG. 122.

[4] = Variable temperature XRPD (VT-XRPD) of crystal forms; type: physicochemical; details: for crystal form on heating to 150 °C: N2, heated to 150 °C and cooled; for crystal form on exposure to air: exposed to air after N2 purging/heating; for crystal form on N2 purging: purged with N2 for 20 minutes
From the text: The XRPD pattern was collected on an X-ray powder diffraction analyzer produced by PANalytacal, and the scanning parameters are shown in Table 2.
The crystal form A of the compound of formula I of Example 2 was identified using variable temperature XRPD (VT-XRPD).

[5] = Influence of vacuum drying on crystal form A (XRPD, HPLC purity); type: physicochemical; details: vacuum drying 60 °C/80 °C, 4 hours
Experimental: In order to evaluate the influence of the drying conditions on the crystal form A of the compound of formula I, the changes of the sample before and after vacuum drying of the crystal form A of the compound of formula I under the condition of 60 °C/80 °C for 4 hours were respectively investigated. The XRPD, ^1H NMR, and HPLC purity of the dried sample were tested.

[6] = Human liver microsome stability; type: in vitro ADME; details: human liver microsomes, 30 min, 37 °C, NADPH; read-out: Remaining percentage of compound after incubation for 30 min
Experimental: The human liver microsome stability test was performed by incubating the compound and human liver microsomes in vitro. First, the compound to be tested was prepared into a 10 mM stock solution in DMSO solvent, and then the compound was diluted to 0.5 mM with acetonitrile. Human liver microsomes (Corning) were diluted with PBS into a microsome/buffer solution, and the solution was used to dilute 0.5 mM compound into a working solution, in which the concentration of the compound was 1.5 μM, and the concentration of human liver microsomes was 0.75 mg/mL. A deep-well plate was taken, 30 μL of the working solution was added per well, and then 15 μL of pre-heated 6 mM NADPH solution was added thereto to initiate a reaction, and the reaction was incubated at 37 °C At 0, 5, 15, 30, and 45 min of the incubation, 135 μL of acetonitrile was added to the corresponding wells to terminate the reaction. After the reaction was terminated with acetonitrile at the last time point of 45 min, the deep-well plate was vortexed for 10 min (600 rpm/min), and then centrifuged for 15 min. After centrifugation, the supernatant was collected, and added with purified water in a ratio of 1:1 to perform LC-MS/MS detection. A ratio of a peak area of compound to a peak area of internal standard at each time point was obtained, and the peak area ratios of the compound at 5, 15, 30, and 45 min were compared with the peak area ratio at 0 min to calculate the remaining percentage of the compound at each time point. T1/2 was calculated by using GraphPad 5 software.

Row | SMILES | pH of filtrate ([1]; FaSSIF, 1 hour, 37 °C) | pH of filtrate ([1]; FaSSIF, 4 hours, 37 °C) | pH of filtrate ([1]; FaSSIF, 24 hours, 37 °C) | pH of filtrate ([1]; FeSSIF, 1 hour, 37 °C) | pH of filtrate ([1]; FeSSIF, 4 hours, 37 °C) | pH of filtrate ([1]; FeSSIF, 24 hours, 37 °C) | pH of filtrate ([1]; H2O, 1 hour, 37 °C) | pH of filtrate ([1]; H2O, 4 hours, 37 °C) | pH of filtrate ([1]; H2O, 24 hours, 37 °C) | pH of filtrate ([1]; SGF, 1 hour, 37 °C) | pH of filtrate ([1]; SGF, 4 hours, 37 °C) | pH of filtrate ([1]; SGF, 24 hours, 37 °C) | HPLC results Purity (solid state stability) ([2]; 25 °C/60% RH/open, 1 week) [area %] | HPLC results Purity (solid state stability) ([2]; 40 °C/75% RH/open, 1 week) [area %] | HPLC results Purity (solid state stability) ([2]; Onset) [area %] | other results
1 | Cc1nc(N[C@H](C)c2cccc(S(F)(F)(F)(F)F)c2)c2cn(C3(CF)CC3)c(=O)cc2n1 [Crystal form A of ethanesulfonate salt] | 4.5 | 4.2 | 3.7 | 4.8 | 4.8 | 4.7 | 2.9 | 3.1 | 2.8 | 1.6 | 1.5 | 1.5 | – | – | – | S: solubility ([1]; FaSSIF, 4 hours, 37 °C, 240 min): 1610 µg/mL; S: solubility ([1]; FeSSIF, 4 hours, 37 °C, 240 min): 3620 µg/mL; S: solubility ([1]; H2O, 1 hour, 37 °C, 60 min): 10060 µg/mL; S: solubility ([1]; H2O, 4 hours, 37 °C, 240 min): 9810 µg/mL; S: solubility ([1]; H2O, 24 hours, 37 °C, 1440 min): 10080 µg/mL; S: solubility ([1]; SGF, 4 hours, 37 °C, 240 min): 10130 µg/mL; S: solubility ([1]; SGF, 24 hours, 37 °C, 1440 min): 10110 µg/mL
2 | Cc1nc(N[C@H](C)c2cccc(S(F)(F)(F)(F)F)c2)c2cn(C3(CF)CC3)c(=O)cc2n1 [Crystal form A of methanesulfonate salt] | 4.3 | 4.4 | 4.0 | 4.8 | 4.8 | 4.8 | 3.5 | 3.5 | 3.1 | 1.7 | 1.8 | 1.6 | – | – | – | S: solubility ([1]; FeSSIF, 1 hour, 37 °C, 60 min): 4040 µg/mL
3 | Cc1nc(N[C@H](C)c2cccc(S(F)(F)(F)(F)F)c2)c2cn(C3(CF)CC3)c(=O)cc2n1 [crystal form A of the fumarate salt of the compound of formu] | – | – | – | – | – | – | – | – | – | – | – | – | – | – | – | solid state stability [2]: good stability; moisture behaviour higher than 10% RH [3]: absorb more moisture and gain more weight with the increase of humidity; moisture behaviour lower than 10% RH [3]: rapidly dehydrate; crystal form on heating to 150 °C [4]: No change in the crystal form was observed; crystal form on exposure to air [4]: transcrystallized back to the crystal form A of the fumarate salt; crystal form on N2 purging [4]: a peak shift was observed; solubility in water, SGF, FaSSIF and FeSSIF ([1]; 37 °C): high solubility; change in crystal form after solubility test [1]: no change in crystal form is observed
4 | Cc1nc(N[C@H](C)c2cccc(S(F)(F)(F)(F)F)c2)c2cn(C3(CF)CC3)c(=O)cc2n1 [crystal form A of the compound of formula I] | – | – | – | – | – | – | – | – | – | – | – | – | – | – | – | solid state stability [2]: good stability; moisture behaviour higher than 10% RH [3]: absorb more moisture and gain more weight with the increase of humidity; moisture behaviour lower than 10% RH [3]: rapidly dehydrate; change in purity before and after drying (HPLC) [5]: no significant change in purity was observed; crystal form after vacuum drying ([5]; exposure to 19 °C/27% RH 10-15 min): still the crystal form A of the compound of formula I; crystal form on N2 purging [4]: transformed into a new crystal form B; solubility in water, SGF, FaSSIF and FeSSIF ([1]; 37 °C): high solubility; change in crystal form after solubility test [1]: no change in crystal form is observed
5 | Cc1nc(N[C@H](C)c2cccc(S(F)(F)(F)(F)F)c2)c2cn(C3(CF)CC3)c(=O)cc2n1 [Crystal form A of compound of formula I] | 6.3 | 6.3 | 6.4 | 5.1 | 5.1 | 5.1 | 5.4 | 6.0 | 5.8 | 3.2 | 3.3 | 3.2 | – | – | – | S: solubility ([1]; FeSSIF, 1 hour, 37 °C, 60 min): 2720 µg/mL
6 | Cc1nc(N[C@H](C)c2cccc(S(F)(F)(F)(F)F)c2)c2cn(C3(CF)CC3)c(=O)cc2n1 [Crystal form A ethanesulfonate salt] | – | – | – | – | – | – | – | – | – | – | – | – | 99.15 | 99.29 | 99.10 | –
7 | Cc1nc(N[C@H](C)c2cccc(S(F)(F)(F)(F)F)c2)c2cn(C3(CF)CC3)c(=O)cc2n1 [Crystal form A fumarate salt] | – | – | – | – | – | – | – | – | – | – | – | – | 98.67 | 98.70 | 98.67 | –
8 | Cc1nc(N[C@H](C)c2cccc(S(F)(F)(F)(F)F)c2)c2cn(C3(CF)CC3)c(=O)cc2n1 [crystal form B of the compound of formula I] | – | – | – | – | – | – | – | – | – | – | – | – | – | – | – | crystal form on exposure to air [4]: transcrystallized back to the crystal form A; crystal form on heating to 100 °C and cooling to 30 °C ([4]; under N2, 100 °C, cooled to 30 °C): No crystal change was observed
9 | Cc1nc(N[C@H](C)c2cccc(S(F)(F)(F)(F)F)c2)c2cn(C3(CF)CC3)c(=O)cc2n1 [Crystal form A methanesulfonate salt] | – | – | – | – | – | – | – | – | – | – | – | – | 99.21 | 99.26 | 99.18 | –
10 | Cc1nc(N[C@H](C)c2cccc(S(F)(F)(F)(F)F)c2)c2cn(C3(CF)CC3)c(=O)cc2n1 [Crystal form A of fumarate salt] | 4.8 | 4.6 | 4.3 | 4.6 | 4.8 | 4.7 | 4.2 | 4.2 | 4.1 | 1.8 | 2.0 | 1.7 | – | – | – | solubility at 1 h ([1]; fessif, 1 hour, 37 °C, read-out: S: solubility): 3510 µg/mL; solubility at 4 h ([1]; fessif, 4 hours, 37 °C, read-out: S: solubility): 2390 µg/mL; solubility at 24 h ([1]; fessif, 24 hours, 37 °C, read-out: S: solubility): 2180 µg/mL
11 | Cc1nc(N[C@H](C)c2cccc(S(F)(F)(F)(F)F)c2)c2cn(C3(CF)CC3)c(=O)cc2n1 [Crystal form B of citrate salt] | 4.5 | 3.9 | 3.6 | 4.8 | 4.6 | 4.5 | 3.5 | 3.5 | 3.3 | 2.5 | 2.6 | 2.4 | – | – | – | –
12 | Cc1nc(N[C@H](C)c2cccc(S(F)(F)(F)(F)F)c2)c2cn(C3(CF)CC3)c(=O)cc2n1 [crystal form A of the methanesulfonate salt of the compound ] | – | – | – | – | – | – | – | – | – | – | – | – | – | – | – | solid state stability [2]: good stability; hygroscopicity ([3]; 0% RH to 95% RH): slightly hygroscopic; crystal form on heating to 150 °C [4]: no change in the crystal form was observed; solubility in water, SGF, FaSSIF and FeSSIF ([1]; 37 °C): high solubility
13 | Cc1nc(N[C@H](C)c2cccc(S(F)(F)(F)(F)F)c2)c2cn(C3(CF)CC3)c(=O)cc2n1 [Crystal form B citrate salt] | – | – | – | – | – | – | – | – | – | – | – | – | 99.00 | 99.01 | 98.92 | –
14 | Cc1nc(N[C@H](C)c2cccc(C(F)(F)F)c2C)c2cn(C3(CF)CC3)c(=O)cc2n1 [Control compound 1, reference compound] | – | – | – | – | – | – | – | – | – | – | – | – | – | – | – | remaining at 0.5 h [6]: 70.2%
15 | Cc1nc(N[C@H](C)c2cccc(S(F)(F)(F)(F)F)c2)c2cn(C3(CF)CC3)c(=O)cc2n1 [Crystal form A compound formula I] | – | – | – | – | – | – | – | – | – | – | – | – | 97.13 | 97.14 | 97.06 | –
